From ChEMBL document CHEMBL6153075, “Design, synthesis, and antitumor evaluation of triazolopyridine derivatives as novel inhibitors for BRD4” (Eur J Med Chem, 2025)
pIC50: −log10 of the molar value.

Experiments:
HL-60 = assay: Antiproliferative activity against human HL-60 cells; type: functional, cell-based
MV4-11 [1] = assay: Antiproliferative activity against human MV4-11 cells
[2] = MRT in ICR mouse at 1 mg/kg, iv measured for 5 to 480 mins by LC-MS/MS analysis; type: ADME, organism-based; conditions: in vivo, time 5-480 min
[3] = MRT in ICR mouse at 10 mg/kg, po measured for 5 to 480 mins by LC-MS/MS analysis; type: ADME, organism-based; conditions: in vivo, time 5-480 min
[4] = AUC (0 to infinity) in ICR mouse at 10 mg/kg, po measured for 5 to 480 mins by LC-MS/MS analysis; type: ADME, organism-based; conditions: in vivo, time 5-480 min
MV4-11 [5] = assay: Induction of apoptosis in human MV4-11 cells incubated for 72 hrs by Annexin V-FITC/PI staining based flow cytometry; type: functional, cell-based; conditions: dose 0.25-10 µM
[6] = Tmax in ICR mouse at 10 mg/kg, po measured for 5 to 480 mins by LC-MS/MS analysis; type: ADME, organism-based; conditions: in vivo, time 5-480 min
[7] = Clearance in ICR mouse at 1 mg/kg, iv measured for 5 to 480 mins by LC-MS/MS analysis; type: ADME, organism-based; conditions: in vivo, time 5-480 min
[8] = Drug uptake in ICR mouse plasma at 10 mg/kg, po measured for 5 to 480 mins by LC-MS/MS analysis; type: ADME, organism-based; conditions: in vivo, time 5-480 min
[9] = Volume of distribution at steady state in ICR mouse at 1 mg/kg, iv measured for 5 to 480 mins by LC-MS/MS analysis; type: ADME, organism-based; conditions: in vivo, time 5-480 min
[10] = AUC (0 to t) in ICR mouse at 1 mg/kg, iv measured for 5 to 480 mins by LC-MS/MS analysis; type: ADME, organism-based; conditions: in vivo, time 5-480 min
[11] = Cmax in ICR mouse at 10 mg/kg, po measured for 5 to 480 mins by LC-MS/MS analysis; type: ADME, organism-based; conditions: in vivo, time 5-480 min
[12] = Oral bioavailability in ICR mouse at 10 mg/kg measured for 5 to 480 mins by LC-MS/MS analysis; type: ADME, organism-based; conditions: in vivo, time 5-480 min
[13] = Tmax in ICR mouse at 1 mg/kg, iv measured for 5 to 480 mins by LC-MS/MS analysis; type: ADME, organism-based; conditions: in vivo, time 5-480 min
MV4-11 [14] = assay: Induction of apoptosis in human MV4-11 cells at 0.25 to 10 uM incubated for 72 hrs by Annexin V-FITC/PI staining based flow cytometry (reference value: 43.2 %); type: functional; conditions: dose 0.25-10 µM
[15] = AUC (0 to infinity) in ICR mouse at 1 mg/kg, iv measured for 5 to 480 mins by LC-MS/MS analysis; type: ADME, organism-based; conditions: in vivo, time 5-480 min
[16] = Metabolic stability in human liver microsomes assessed as half life preincubated for 5 mins followed by NADPH addition measured for 5 to 90 mins by LC-MS/MS analysis; type: ADME, Microsome; conditions: time 10-95 min
[17] = Blood concentration elimination rate constant for the terminal phase in ICR mouse at 10 mg/kg, po measured for 5 to 480 mins by LC-MS/MS analysis; type: ADME, organism-based; conditions: time 5-480 min, read-out: LambdaZ (converted)
[18] = Drug uptake in ICR mouse plasma at 1 mg/kg, iv measured for 5 to 480 mins by LC-MS/MS analysis; type: ADME, organism-based; conditions: in vivo, time 5-480 min
[19] = Blood concentration elimination rate constant for the terminal phase in ICR mouse at 1 mg/kg, iv measured for 5 to 480 mins by LC-MS/MS analysis; type: ADME, organism-based; conditions: time 5-480 min, read-out: LambdaZ (converted)
[20] = Half life in ICR mouse at 1 mg/kg, iv measured for 5 to 480 mins by LC-MS/MS analysis; type: ADME, organism-based; conditions: in vivo, time 5-480 min
[21] = Metabolic stability in human liver microsomes assessed as clearance preincubated for 5 mins followed by NADPH addition measured for 5 to 90 mins by LC-MS/MS analysis; type: ADME, Microsome; conditions: time 10-95 min, read-out: CLH
[22] = Clearance in ICR mouse at 10 mg/kg, po measured for 5 to 480 mins by LC-MS/MS analysis; type: ADME, organism-based; conditions: in vivo, time 5-480 min
[23] = Cmax in ICR mouse at 1 mg/kg, iv measured for 5 to 480 mins by LC-MS/MS analysis; type: ADME, organism-based; conditions: in vivo, time 5-480 min
[24] = AUC (0 to t) in ICR mouse at 10 mg/kg, po measured for 5 to 480 mins by LC-MS/MS analysis; type: ADME, organism-based; conditions: in vivo, time 5-480 min
[25] = Half life in ICR mouse at 10 mg/kg, po measured for 5 to 480 mins by LC-MS/MS analysis; type: ADME, organism-based; conditions: in vivo, time 5-480 min
HCT-116 = assay: Antiproliferative activity against human HCT-116 cells; type: functional, cell-based

With Cc1nnc2ccc(-c3nc4cnc(-c5cnn(C)c5)cn4c3Nc3ccc(F)cc3)cn12 as the compound, how does the pIC50 (HL-60) read?
Its pIC50 is 5.08.

What about the pIC50 (MV4-11 [1]) of the same compound?
Its pIC50 is 5.31.

Which MRT [2] does the source give for CCc1nnc2ccc(-c3nc4cnc(-c5cnn(C)c5)cn4c3Nc3ccc(F)cc3Br)cn12 here?
Its MRT is 1.32 h.

What about the MRT [3] of the same compound?
Its MRT is 3.9 h.

And the AUC(0-inf) [4]?
The AUC(0-inf) was 20900 ng·h/mL.

And the Activity (MV4-11 [5])?
Its Activity is “Dose-dependent-effect; Activity Was Better Than (+)-Jq1”.

And the pIC50 (MV4-11 [1])?
Its pIC50 is 7.70.

And the Tmax [6]?
The Tmax was 0.5 h.

And the CL [7]?
Its CL is 2 10^-4(mg/kg)/(ng/ml)/hr.

And the Drug uptake [8]?
The Drug uptake was “Active”.

What about the Vdss [9] of the same compound?
The Vdss was 3 10^-4(mg/kg)/(ng/ml).

And the AUC(0-t) [10]?
The AUC(0-t) was 4640 ng·h/mL.

And the Cmax [11]?
The Cmax was 5480 ng/mL.

What about the bioavailability [12] of the same compound?
The bioavailability was 44.8%.

And the Tmax [13]?
The Tmax was 4.8 min.

What about the Activity (MV4-11 [14]) of the same compound?
The Activity was 83.2%.

And the AUC(0-inf) [15]?
The AUC(0-inf) was 4660 ng·h/mL.

And the half-life [16]?
Its half-life is 38.6 h.

And the k el [17]?
Its k el is 9.72e-05 s⁻¹.

What about the Drug uptake [18] of the same compound?
Its Drug uptake is “Active”.

And the k el [19]?
Its k el is 0.000181 s⁻¹.

And the half-life [20]?
The half-life was 1.06 h.

What about the microsomal CLint [21] of the same compound?
The microsomal CLint was 0.3 µL/min/mg.

And the CL [22]?
The CL was 0.001 (mg/kg)/(ng/ml)/hr.

And the Cmax [23]?
The Cmax was 4410 ng/mL.

What about the AUC(0-t) [24] of the same compound?
Its AUC(0-t) is 18300 ng·h/mL.

What about the half-life [25] of the same compound?
Its half-life is 2.26 h.

With CCc1nnc2ccc(-c3nc4cnc(N5CCN(C)CC5)cn4c3Nc3ccc(F)c(Cl)c3)cn12 as the compound, how does the pIC50 (MV4-11 [1]) read?
The pIC50 was 6.13.

Which Activity (MV4-11 [5]) does the source give for Cc1sc2c(c1C)C(c1ccc(Cl)cc1)=N[C@@H](CC(=O)OC(C)(C)C)c1nnc(C)n1-2 here?
The Activity was “Dose-dependent-effect”.

What about the pIC50 (HL-60) of the same compound?
The pIC50 was 5.50.

What about the pIC50 (MV4-11 [1]) of the same compound?
The pIC50 was 7.52.

And the pIC50 (HCT-116)?
Its pIC50 is 5.57.

Which results are given for COc1ccc(Nc2c(-c3ccc4nnc(C)n4c3)nc3cnc(N4CCOCC4)cn23)cc1?
pIC50 (MV4-11 [1]): 6.25; pIC50 (HCT-116): 5.35

What does the source list for Cc1nnc2ccc(-c3nc4cnc(N5CCOCC5)cn4c3Nc3ccc(C(F)(F)F)cc3)cn12?
pIC50 (MV4-11 [1]): 6.54; half-life [16]: 2.56 h; microsomal CLint [21]: 4.52 µL/min/mg

With Cc1nnc2ccc(-c3nc4cnc(N5CCOCC5)cn4c3Nc3cccc(F)c3)cn12 as the compound, how does the pIC50 (MV4-11 [1]) read?
Its pIC50 is 6.06.
